In ChEMBL document CHEMBL4118035, “Total Synthesis of the Claimed Structure of (±)-Hyptinin and Structural Revision of Natural Hyptinin” (J Nat Prod, 2017):

Test: Growth inhibition of ATL patient-derived S1T cells after 72 hrs by WST-8 assay
Type: functional
Settings: Homo sapiens

Compound	IC50 [nM]
COc1cc(C2C3=C(Cc4c2cc2c(c4OC)OCO2)C(=O)OC3)cc(OC)c1OC (configuration not stated)	7
COc1cc(C2C3=C(Cc4cc5c(cc42)OCO5)C(=O)OC3)cc(OC)c1OC (configuration not stated)	5.1
